The subject of one assay is 1F7-McAb. As to the kind of experiment: heterologous ic-ELISA with 1F7-McAb. The conditions noted are these: for cross-reactivity rate: IC50 of clothianidin / IC50 of analogue × 100%. A general note: In an ELISA, binding on a coated surface is turned into a signal by an enzyme label.
The test system of assay [1] is 1F7-RAb. As to the kind of experiment: IMI-H-OVA-based heterologous ic-ELISA with 1F7-RAb. It is filed as binding, mouse. Particulars: for cross-reactivity rate: ic-ELISA, IC50 of clothianidin / IC50 of analogue × 100%.
In another assay the test system is 5C3-McAb. Kind of assay: heterologous ic-ELISA with 5C3-McAb. The conditions noted are these: for cross-reactivity rate: IC50 of clothianidin / IC50 of analogue × 100%.
The subject of assay [2] is PcAb [22] (anti-clothianidin antibody). Further details: method as in PMID 23527939. The conditions noted are these: ic-ELISA, cited from earlier work; for cross-reactivity rate: IC50 of clothianidin / IC50 of analogue × 100%.
Assay [3] relates to McAb [23] (anti-clothianidin antibody). Further details: method as in PMID 23202236. The conditions noted are these: ic-ELISA, cited from earlier work; for cross-reactivity rate: IC50 of clothianidin / IC50 of analogue × 100%.
Assay [4] relates to 5C3-RAb. As to the kind of experiment: THC-H-OVA-based heterologous ic-ELISA with 5C3-RAb. It is filed as binding, mouse. The conditions noted are these: for cross-reactivity rate: ic-ELISA, IC50 of clothianidin / IC50 of analogue × 100%.
Assay [5] deals with McAb [35] (anti-clothianidin antibody). Further details: method as in PMID 25173856. The conditions noted are these: ic-ELISA, cited from earlier work; for cross-reactivity rate: IC50 of clothianidin / IC50 of analogue × 100%.
The subject of assay [6] is 1F7-RAb. Kind of assay: non-competitive SPR with immobilized 1F7-RAb. It is filed as binding, mouse.
The test system of assay [7] is six potential antibodies from hybridoma culture supernatants. As to the kind of experiment: homologous ic-ELISA hybridoma screening (CLO-H-OVA). The conditions noted are these: free clothianidin 50 μg/L; CLO-H-OVA 5 μg/mL.
Assay [8] deals with 5C3-RAb. As to the kind of experiment: non-competitive SPR with immobilized 5C3-RAb. In kind it is binding, mouse.
The test system of assay [9] is 1F7-RAb. As to the kind of experiment: 1F7-RAb-based GICA, selectivity and sensitivity in standard solution. In kind it is binding, mouse. Particulars: analyte at 1000 μg/L, judged with the naked eye.
[10] abbreviates: 8 neonicotinoids at the same concentration of 50 nM.
Where [11] appears, read: SPR, 1:1 binding kinetic model, read-out: KD (dissociation equilibrium constant).

In brackets after ≈: the same amount, converted by molar mass. Marks after values point to notes of the source that are not given here. Where only a bound is given, the exact number is not on record here.

Take `O=[N+]([O-])/N=C1\NCCN1Cc1ccc(Cl)nc1` [C00003]: the cross-reactivity rate with 1F7-McAb is recorded as less than 0.1%; in the assay on 1F7-RAb [1], less than 0.1%; in the assay on 5C3-McAb, less than 0.1%; in assay [2], 0.8%; in assay [3], less than 0.1%; with 5C3-RAb [4] it was less than 0.1%. In addition, the cross-reactivity rate in assay [5] was less than 0.03%.

Regarding `C/C(=N\C#N)N(C)Cc1ccc(Cl)nc1` [C00004], the cross-reactivity rate in the assay on 1F7-McAb was less than 0.1%; in the assay with 1F7-RAb [1] it was less than 0.1%; with 5C3-McAb it was less than 0.1%; in assay [2], less than 0.05%; in assay [3], less than 0.1%; in the assay with 5C3-RAb [4], less than 0.1%. For the same molecule, in assay [5], the cross-reactivity rate was less than 0.03%.

With `N#C/N=C1\SCCN1Cc1ccc(Cl)nc1` [C00005], the cross-reactivity rate in the assay on 1F7-McAb is given as less than 0.1%; in the assay on 1F7-RAb [1], less than 0.1%; in the assay on 5C3-McAb it was less than 0.1%; in assay [2] it was less than 0.05%; in assay [3], less than 0.1%; in the assay with 5C3-RAb [4], less than 0.1%. In addition, in assay [5], the cross-reactivity rate was less than 0.03%.

As to `CN1COCN(Cc2cnc(Cl)s2)/C1=N/[N+](=O)[O-]` [C00006], the cross-reactivity rate with 1F7-McAb is less than 0.1%; with 1F7-RAb [1] it was less than 0.1%; with 5C3-McAb, less than 0.1%; in assay [2] it was less than 0.05%; in assay [3], less than 0.1%; in the assay on 5C3-RAb [4] it was less than 0.1%. The cross-reactivity rate in assay [5] is less than 0.03%.

For `CCN(Cc1ccc(Cl)nc1)/C(=C\[N+](=O)[O-])NC` [C00007], the cross-reactivity rate was less than 0.1% in the assay on 1F7-McAb; less than 0.1% in the assay with 1F7-RAb [1]; less than 0.1% with 5C3-McAb; less than 0.05% in assay [2]; less than 0.1% in assay [3]; less than 0.1% in the assay with 5C3-RAb [4]. In assay [5], the cross-reactivity rate is given as less than 0.03%.

For `O=[N+]([O-])/N=C1/NCCN1Cc1cnc(Cl)s1` [C00008], the cross-reactivity rate with 1F7-McAb was less than 0.1%; in the assay on 1F7-RAb [1] it was less than 0.1%; with 5C3-McAb it was less than 0.1%; in assay [2] it was less than 0.05%; in [3], less than 0.1%; in the assay on 5C3-RAb [4] it was less than 0.1%. Further, the cross-reactivity rate in assay [5] is on record as less than 0.03%.

In general, Kd refers to a measure of binding affinity in units of concentration. In the case of `CN/C(=N\[N+](=O)[O-])NCc1cnc(Cl)s1` [clothianidin], the IC50 value in the assay with 1F7-McAb was 5.38 ng/mL (≈ 0.0215 µM); in the assay on 1F7-RAb [1] (heterologous ic-ELISA, 1.25 μg/mL of IMI-H-OVA) it was 4.62 ng/mL (≈ 0.0185 µM); in the assay on 5C3-McAb, 13.16 ng/mL (≈ 0.0527 µM); in [2] it was 46 ng/mL (≈ 0.184 µM); in assay [3], 4.4 ng/mL (≈ 0.0176 µM); in the assay on 5C3-RAb [4] (heterologous ic-ELISA, 5 μg/mL of THC-H-OVA, listed as C00001) it was 5.22 ng/mL (≈ 0.0209 µM). Besides, the IC50 value in assay [5] was 25.6 ng/mL (≈ 0.103 µM). Besides, the cross-reactivity rate (in the assay with 1F7-McAb; in the assay on 1F7-RAb [1]; in the assay on 5C3-McAb; in assay [2]; in assay [3]; in the assay on 5C3-RAb [4]) was 100% each time. Moreover, in [5], the cross-reactivity rate is recorded as 100%. The “SPR binding selectivity signal” value with 1F7-RAb [6] (setting [10]) and with 5C3-RAb [8] (setting [10]) was “high signal” in each case. Further, the values for the Kd at 1F7-RAb [6] (setting [11]) and at 5C3-RAb [8] (setting [11]) were 3.24 nM and 7.96 nM, respectively. Besides, the “inhibition of binding of CLO-H-OVA to antibodies” value in assay [7] is listed as “less than 11%”. The “GICA cross-reaction test, effect on T line” value in the assay with 1F7-RAb [9] was “complete disappearance of the T line”.

For the molecule `CN/C(=N/CC1CCOC1)N[N+](=O)[O-]` (stereo not shown) [dinotefuran], the cross-reactivity rate with 1F7-McAb is recorded as less than 0.1%; with 1F7-RAb [1], “no obvious cross-reaction”; with 1F7-RAb [1] (listed as C00002), less than 0.1%; in the assay with 5C3-McAb, 42.4%; in assay [2], 11.8 ^c %; in [3], 64%. The cross-reactivity rate in the assay with 5C3-RAb [4] was 56%; in assay [5], 47.8%.
